The record followed here is US12083124B2 (Incyte Corporation, priority 2019, dated 2024).

Like-named read-outs stand apart in the source and are kept apart here.

In assay [1] the target is wild-type un-phosphorylated FGFR2 (Homo sapiens, UniProt P21802). Briefly: FGFR Enzymatic Assay (FRET peptide phosphorylation), FGFR2.
In assay [2] the target is wild-type un-phosphorylated FGFR3 (Homo sapiens, UniProt P22607). Briefly: FGFR Enzymatic Assay (FRET peptide phosphorylation), FGFR3.
Assay [3] concerns the target wild-type un-phosphorylated FGFR1 (Homo sapiens, UniProt P11362). The assay can be described thus: FGFR Enzymatic Assay (FRET peptide phosphorylation), FGFR1. The conditions noted are these: pre-incubated for 4 hours.
Description: The inhibitor potency of the exemplified compounds was determined in an enzyme discontinuous assay that measures peptide phosphorylation using FRET measurements to detect product formation. Inhibitors were serially diluted in DMSO and a volume of 0.2 μL was transferred to the wells of a 384-well plate. […] Appropriate controls (enzyme blank and enzyme with no inhibitor) were included on the plate. […] The 10 μL/well reaction concentration of the peptide substrate was 500 nM whereas the ATP concentration was maintained near or below the ATP Km. The ATP Km values were pre-determined in a separate series of experiments. The reaction plate was incubated at 25° C. for 1 hr and the reactions were ended with the addition of 5 μL/well of quench solution (50 mM Tris, 150 mM NaCl, 0.5 mg/mL BSA, pH 7.8; 45 mM EDTA, 600 nM staurosporin, with Perkin Elmer Lance Reagents at 3.75 nM Eu-antibody PY20 and 180 nM APC-Streptavidin). The plate was allowed to equilibrate for ˜10 minutes at ambient temperature before scanning on a PheraStar plate reader (BMG Labtech) instrument.
Either GraphPad prism or XLfit was used to analyze the data. The IC50 values were derived by fitting the data to a four parameter logistic equation producing a sigmoidal dose-response curve with a variable Hill coefficient. Prism equation: Y=Bottom+(Top-Bottom)/(1+10^((Log IC50-X)*Hill slope)); XLfit equation: Y=(A+((B−A)/(1+((X/C)^D)))) where X is the logarithm of inhibitor concentration and Y is the response.
GraphPad prism3 was used to analyze the data. The IC50 values were derived by fitting the data to the equation for a sigmoidal dose-response with a variable slope. Y=Bottom+(Top-Bottom)/(1+10^((Log IC50-X)*Hill Slope)) where X is the logarithm of concentration and Y is the response.
The data in Table 1 was measured in wild-type un-phosphorylated FGFR1, FGFR2, FGFR3, and FGFR4 proteins.
[4] abbreviates: FGFR1, wild-type un-phosphorylated FGFR1.
Setting [5] is: read-out: FGFR1, wild-type un-phosphorylated FGFR1.
The mark [6] stands for this setting: read-out: FGFR2, wild-type un-phosphorylated FGFR2, pre-incubated for 4 hours.
The mark [7] stands for this setting: read-out: FGFR3, wild-type un-phosphorylated FGFR3, pre-incubated for 4 hours.

wild-type un-phosphorylated FGFR2, sequence (P21802 22-821): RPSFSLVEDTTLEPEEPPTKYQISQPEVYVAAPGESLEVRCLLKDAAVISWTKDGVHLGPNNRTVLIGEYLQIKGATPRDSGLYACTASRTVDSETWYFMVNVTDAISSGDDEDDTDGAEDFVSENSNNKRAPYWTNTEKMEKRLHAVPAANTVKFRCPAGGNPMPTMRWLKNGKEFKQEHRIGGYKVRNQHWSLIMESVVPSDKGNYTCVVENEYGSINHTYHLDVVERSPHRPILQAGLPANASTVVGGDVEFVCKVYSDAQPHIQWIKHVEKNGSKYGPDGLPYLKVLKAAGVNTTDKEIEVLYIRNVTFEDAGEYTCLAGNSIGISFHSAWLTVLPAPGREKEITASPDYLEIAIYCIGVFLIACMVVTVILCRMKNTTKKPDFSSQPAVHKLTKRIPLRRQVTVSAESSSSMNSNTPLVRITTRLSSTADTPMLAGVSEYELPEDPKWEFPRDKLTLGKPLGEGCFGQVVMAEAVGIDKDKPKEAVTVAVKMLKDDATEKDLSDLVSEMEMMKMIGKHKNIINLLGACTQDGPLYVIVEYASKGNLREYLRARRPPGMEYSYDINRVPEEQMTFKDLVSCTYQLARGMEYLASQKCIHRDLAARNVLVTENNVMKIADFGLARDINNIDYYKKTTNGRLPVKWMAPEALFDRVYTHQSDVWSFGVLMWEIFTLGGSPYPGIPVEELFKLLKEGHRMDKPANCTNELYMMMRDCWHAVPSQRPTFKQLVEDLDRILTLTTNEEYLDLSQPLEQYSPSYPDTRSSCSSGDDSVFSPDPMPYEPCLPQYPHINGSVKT
wild-type un-phosphorylated FGFR3, sequence (P22607 23-806): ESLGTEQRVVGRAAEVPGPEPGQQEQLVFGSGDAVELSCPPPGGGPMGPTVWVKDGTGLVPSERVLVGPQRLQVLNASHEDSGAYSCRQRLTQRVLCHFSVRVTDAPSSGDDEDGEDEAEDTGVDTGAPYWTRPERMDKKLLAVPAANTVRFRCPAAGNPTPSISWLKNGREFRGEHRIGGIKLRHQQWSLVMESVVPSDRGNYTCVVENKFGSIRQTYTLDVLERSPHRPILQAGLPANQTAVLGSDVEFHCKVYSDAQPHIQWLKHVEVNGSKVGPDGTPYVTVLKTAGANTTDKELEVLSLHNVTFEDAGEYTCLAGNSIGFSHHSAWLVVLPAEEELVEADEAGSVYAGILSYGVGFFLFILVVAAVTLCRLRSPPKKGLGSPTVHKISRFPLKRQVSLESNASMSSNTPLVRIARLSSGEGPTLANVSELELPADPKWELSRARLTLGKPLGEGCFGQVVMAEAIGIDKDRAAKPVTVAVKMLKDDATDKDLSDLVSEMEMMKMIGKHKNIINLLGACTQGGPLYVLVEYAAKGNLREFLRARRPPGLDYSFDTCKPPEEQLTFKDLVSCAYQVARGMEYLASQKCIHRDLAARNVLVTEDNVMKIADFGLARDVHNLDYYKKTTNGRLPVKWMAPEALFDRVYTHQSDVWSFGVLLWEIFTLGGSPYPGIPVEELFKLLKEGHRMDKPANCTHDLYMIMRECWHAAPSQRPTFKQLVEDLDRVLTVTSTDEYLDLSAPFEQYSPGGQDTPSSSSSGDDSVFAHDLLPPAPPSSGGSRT
wild-type un-phosphorylated FGFR1, sequence (P11362 22-822): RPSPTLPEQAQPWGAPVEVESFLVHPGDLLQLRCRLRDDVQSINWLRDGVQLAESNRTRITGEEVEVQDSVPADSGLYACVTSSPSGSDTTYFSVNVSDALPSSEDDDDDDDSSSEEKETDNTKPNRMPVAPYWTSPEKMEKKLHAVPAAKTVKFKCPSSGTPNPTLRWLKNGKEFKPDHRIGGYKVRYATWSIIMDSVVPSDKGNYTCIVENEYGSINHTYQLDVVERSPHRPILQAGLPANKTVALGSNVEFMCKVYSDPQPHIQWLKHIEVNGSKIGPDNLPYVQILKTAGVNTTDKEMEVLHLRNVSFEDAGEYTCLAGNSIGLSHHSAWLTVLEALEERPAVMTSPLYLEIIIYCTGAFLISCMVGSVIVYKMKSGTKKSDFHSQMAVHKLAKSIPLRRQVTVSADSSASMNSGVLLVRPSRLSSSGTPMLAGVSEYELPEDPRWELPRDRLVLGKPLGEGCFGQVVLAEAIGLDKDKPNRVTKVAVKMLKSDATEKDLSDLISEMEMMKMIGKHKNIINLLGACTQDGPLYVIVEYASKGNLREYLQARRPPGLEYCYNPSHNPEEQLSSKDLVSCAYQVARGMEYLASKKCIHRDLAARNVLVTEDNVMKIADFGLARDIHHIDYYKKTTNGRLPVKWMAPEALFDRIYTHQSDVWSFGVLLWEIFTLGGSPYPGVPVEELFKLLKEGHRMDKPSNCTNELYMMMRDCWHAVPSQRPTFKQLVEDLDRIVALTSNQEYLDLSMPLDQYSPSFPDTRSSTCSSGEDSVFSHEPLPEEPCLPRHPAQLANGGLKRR

For the compound `COc1cc2[nH]nc(-c3ccc(N4CCC5(CC4)CNC(=O)O5)nc3)c2nc1-c1cccc(C)c1C` [Example 65, 8-(5-(5-(2,3-Dimethylphenyl)-6-methoxy-1H-pyrazolo[4,3-b]pyridin-3-yl)pyridin-2-yl)-1-oxa-3,8-diazaspiro[4.5]decan-2-one], the IC50 in assay [1] is < 6 nM; in assay [2], < 6 nM; in assay [3] (setting [4]) it was > 100 nM.

Take `COc1cc2[nH]nc(-c3ccc(N4CCN5C[C@H](O)C[C@H]5C4)nc3)c2nc1-c1cccc2c1CC(F)C2` (stereo partly drawn) [Example 83, (7R,8aS)-2-(5-(5-(2-Fluoro-2,3-dihydro-1H-inden-4-yl)-6-methoxy-1H-pyrazolo[4,3-b]pyridin-3-yl)pyridin-2-yl)octahydropyrrolo[1,2-a]pyrazin-7-ol]: the IC50 in assay [1] was < 6 nM; in assay [2] it was < 6 nM; in assay [3] (setting [5]), 6 to 40 nM.

`COc1cc2[nH]nc(-c3ccc(N4CCC(O)CC4)nc3)c2nc1-c1cccc(C)c1C` [Example 46, 1-(5-(5-(2,3-Dimethylphenyl)-6-methoxy-1H-pyrazolo[4,3-b]pyridin-3-yl)pyridin-2-yl)piperidin-4-ol]: the IC50 in assay [1] was < 6 nM; in assay [2] it was < 6 nM; in assay [3] (setting [4]), > 100 nM.

For the compound `COc1cc2[nH]nc(-c3ccc(C45CC4CN(C(=O)CO)C5)nc3)c2nc1-c1cccc2c1CCC2` (single isomer, unassigned) [Example 191C, 1-(1-(5-(5-(2,3-Dihydro-1H-inden-4-yl)-6-methoxy-1H-pyrazolo[4,3-b]pyridin-3-yl)pyridin-2-yl)-3-azabicyclo[3.1.0]hexan-3-yl)-2-hydroxyethan-1-one], the values for the IC50 in assay [1] (setting [6]), in assay [2] (setting [7]) and in assay [3] (setting [5]) were < 6 nM, < 6 nM and 6 to 40 nM, respectively.

As for `COc1cc2[nH]nc(-c3ccc(OC4CCOC4)nc3)c2nc1-c1cccc2c1CC(O)C2` (single isomer, unassigned) [Example 73, 4-(6-Methoxy-3-(6-((tetrahydrofuran-3-yl)oxy)pyridin-3-yl)-1H-pyrazolo[4,3-b]pyridin-5-yl)-2,3-dihydro-1H-inden-2-ol], the IC50 is 6 to 40 nM in assay [1] (setting [6]), < 6 nM in assay [2] and 40 to 100 nM in assay [3] (setting [4]).

For `COc1cc2[nH]nc(-c3ccc(N4CCN(C(C)=O)CC4)nc3)c2nc1-c1cccc(C)c1C` [Example 43, 1-(4-(5-(5-(2,3-Dimethylphenyl)-6-methoxy-1H-pyrazolo[4,3-b]pyridin-3-yl)pyridin-2-yl)piperazin-1-yl)ethan-1-one], the IC50 in assay [1] is < 6 nM; in assay [2] it was < 6 nM; in assay [3] (setting [4]) it was > 100 nM.

Turning to `COc1cc2[nH]nc(-c3ccc(N4CCN5C[C@H](O)C[C@H]5C4)nc3)c2nc1-c1ccccc1C1CC1` [Example 92, (7R,8aS)-2-(5-(5-(2-Cyclopropylphenyl)-6-methoxy-1H-pyrazolo[4,3-b]pyridin-3-yl)pyridin-2-yl)octahydropyrrolo[1,2-a]pyrazin-7-ol], the IC50 was 6 to 40 nM in assay [1] (setting [6]), < 6 nM in assay [2] and > 100 nM in assay [3] (setting [4]).

On to `COc1cc2[nH]nc(-c3ccc(C4CCN(C(=O)[C@H](C)O)CC4)nc3)c2nc1-c1cccc2c1CC(F)C2` (single isomer, unassigned) [Example 81], for which the IC50 in assay [1] is < 6 nM; in assay [2], < 6 nM; in assay [3] (setting [5]), 6 to 40 nM.

Regarding `[2H]C([2H])([2H])c1cccc(-c2nc3c(-c4ccc(N5CCN(C)CC5)nc4)n[nH]c3cc2OC)c1C` [Example 68, 6-Methoxy-5-(2-methyl-3-(methyl-d3)phenyl)-3-(6-(4-methylpiperazin-1-yl)pyridin-3-yl)-1H-pyrazolo[4,3-b]pyridine], the IC50 in assay [1] was < 6 nM; in assay [2], < 6 nM; in assay [3] (setting [4]) it was 40 to 100 nM.

As to `COc1cc2[nH]nc(-c3ccc(C45CC4CN(C(=O)[C@H]4COCCN4C)C5)nc3)c2nc1-c1cccc2c1CCC2` (stereo partly drawn) [Example 192, (1-(5-(5-(2,3-Dihydro-1H-inden-4-yl)-6-methoxy-1H-pyrazolo[4,3-b]pyridin-3-yl)pyridin-2-yl)-3-azabicyclo[3.1.0]hexan-3-yl)((R)-4-methylmorpholin-3-yl)methanone], the IC50 in assay [1] was < 6 nM; in assay [2], < 6 nM; in assay [3] (setting [5]), 6 to 40 nM.

Regarding `COc1cc2[nH]nc(-c3ccc(N4CCC(C)(C(=O)O)CC4)nc3)c2nc1-c1cccc(C)c1C` [Example 51, 1-(5-(5-(2,3-Dimethylphenyl)-6-methoxy-1H-pyrazolo[4,3-b]pyridin-3-yl)pyridin-2-yl)-4-methylpiperidine-4-carboxylic acid], the values for the IC50 in assay [1], in assay [2] and in assay [3] (setting [4]) were < 6 nM, < 6 nM and 40 to 100 nM, respectively.

`COc1cc2[nH]nc(-c3ccc(N4CCN(C)C(=O)C4)nc3)c2nc1-c1cccc(C)c1C` [Example 45, 4-(5-(5-(2,3-Dimethylphenyl)-6-methoxy-1H-pyrazolo[4,3-b]pyridin-3-yl)pyridin-2-yl)-1-methylpiperazin-2-one]: the IC50 in assay [1] is < 6 nM; in assay [2], < 6 nM; in assay [3] (setting [4]), > 100 nM.

In the case of `COc1cc2[nH]nc(-c3ccc(N4CCS(=N)(=O)CC4)nc3)c2nc1-c1cccc(C)c1C` [Example 86, 4-(5-(5-(2,3-Dimethylphenyl)-6-methoxy-1H-pyrazolo[4,3-b]pyridin-3-yl)pyridin-2-yl)-1-imino-1λ^6-thiomorpholine 1-oxide], the results for the IC50 in assay [1], in assay [2] and in assay [3] (setting [4]) were < 6 nM, < 6 nM and > 100 nM, respectively.

Turning to `[2H]C([2H])([2H])Oc1cc2[nH]nc(-c3ccc(N4CCN(C)CC4)nc3)c2nc1-c1cccc(C)c1C` [Example 48, 5-(2,3-Dimethylphenyl)-6-(methoxy-d3)-3-(6-(4-methylpiperazin-1-yl)pyridin-3-yl)-1H-pyrazolo[4,3-b]pyridine], the IC50 is < 6 nM in assay [1], < 6 nM in assay [2] and 40 to 100 nM in assay [3] (setting [4]).

On to `CC(=O)N1CCN(c2ccc(-c3n[nH]c4cc(OC(F)F)c(-c5cccc(C)c5C)nc34)cn2)CC1` [Example 6, 1-(4-(5-(6-(Difluoromethoxy)-5-(2,3-dimethylphenyl)-1H-pyrazolo[4,3-b]pyridin-3-yl)pyridin-2-yl)piperazin-1-yl)ethan-1-one], for which the IC50 in assay [1] was < 6 nM; in assay [2], < 6 nM; in assay [3] (setting [4]) it was > 100 nM.

In the case of `COc1cc2[nH]nc(-c3cnn(C)c3)c2nc1-c1cccc2c1CCC2CO` (single isomer, unassigned) [Example 12, (4-(6-Methoxy-3-(1-methyl-1H-pyrazol-4-yl)-1H-pyrazolo[4,3-b]pyridin-5-yl)-2,3-dihydro-1H-inden-1-yl)methanol], the figures for the IC50 in assay [1] (setting [6]), in assay [2] (setting [7]) and in assay [3] (setting [5]) were < 6 nM, < 6 nM and 40 to 100 nM, respectively.

As to `COc1cc2[nH]nc(-c3ccc(N4CCN5C[C@H](O)C[C@H]5C4)nc3)c2nc1-c1cccc2c1CCCO2` [Example 93, (7R,8aS)-2-(5-(5-(Chroman-5-yl)-6-methoxy-1H-pyrazolo[4,3-b]pyridin-3-yl)pyridin-2-yl)octahydropyrrolo[1,2-a]pyrazin-7-ol], the IC50 in assay [1] (setting [6]) was 6 to 40 nM; in assay [2] it was < 6 nM; in assay [3] (setting [4]) it was > 100 nM.
